The values that follow come from ChEMBL document CHEMBL1132509, “Aminoisoquinolines: design and synthesis of an orally active benzamidine isostere for the inhibition of factor XA” (Bioorg Med Chem Lett, 1999).

For one series, the target named is Coagulation factor X (Bos taurus, UniProt P00743). Nature of the series: In vitro evaluation of inhibitory activity against Coagulation factor X in prothrombinase complex.
The nature of series [1]: pKa value was determined. It counts as physicochemical.
The target of a further series is Prothrombin (Homo sapiens, UniProt P00734). Nature of the series: In vitro evaluation of inhibitory activity against Coagulation factor II in prothrombinase complex.
A further series has as its target Serine protease 1 (Homo sapiens, UniProt P07477). Put plainly: In vitro evaluation of inhibitory activity against trypsin.
Series [2] is described as follows: Ratio inhibitory activity against coagulation factor IIa to that of factor Xa.
Series [3] is described as follows: Ratio of inhibitory activity against Plasmin to that of factor Xa.
Series [4] can be described thus: Ratio of inhibitory activity against activated protein C to that of factor Xa.
Series [5] can be described thus: Ratio of inhibitory activity against […] to that of factor Xa.
Series [6] in a line: Ratio of inhibitory activity against plasminogen activator to that of factor Xa.
Series [7] can be described thus: Maximum concentration in plasma was reported at 0.5 hour. Format: ADME, organism-based. The following applies: read-out: CPmax.
Series [8] in a line: Maximum concentration in plasma was reported at 2 hour. It counts as ADME, organism-based. The following applies: read-out: CPmax.

What is called Ki is a measure of affinity in units of concentration, obtained from inhibition or displacement. For orientation: pKa means the negative logarithm of the acid dissociation constant. Read a high pKa as a weaker acid or stronger base.

Chain of Serine protease 1 (P07477 whole entry): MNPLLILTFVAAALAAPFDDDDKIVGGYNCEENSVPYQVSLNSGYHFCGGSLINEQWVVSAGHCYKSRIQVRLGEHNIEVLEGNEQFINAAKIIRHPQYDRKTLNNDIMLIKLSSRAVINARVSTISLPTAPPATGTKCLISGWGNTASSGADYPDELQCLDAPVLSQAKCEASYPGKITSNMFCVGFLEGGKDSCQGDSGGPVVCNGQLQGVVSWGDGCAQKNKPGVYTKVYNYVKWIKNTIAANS
Chain of Coagulation factor X (P00743 41-180 limits assumed): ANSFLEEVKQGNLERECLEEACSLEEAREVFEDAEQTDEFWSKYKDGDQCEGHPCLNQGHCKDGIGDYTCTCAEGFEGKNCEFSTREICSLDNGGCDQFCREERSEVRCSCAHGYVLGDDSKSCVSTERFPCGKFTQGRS
Chain of Coagulation factor X (P00743 234-492 limits assumed): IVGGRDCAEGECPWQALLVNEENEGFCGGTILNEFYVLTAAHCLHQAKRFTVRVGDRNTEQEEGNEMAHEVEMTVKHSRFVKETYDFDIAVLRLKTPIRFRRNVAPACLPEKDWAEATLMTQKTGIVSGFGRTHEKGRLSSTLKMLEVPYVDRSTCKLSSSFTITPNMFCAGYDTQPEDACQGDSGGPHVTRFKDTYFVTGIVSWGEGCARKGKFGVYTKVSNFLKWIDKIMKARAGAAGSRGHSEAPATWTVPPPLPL

Turning to `COc1ccc2ccc(S(=O)(=O)N[C@H]3CCN(Cc4ccc5ccnc(O)c5c4)C3=O)cc2c1`, the Ki at Coagulation factor X is more than 1200 nM.

On Coagulation factor X, `COc1ccc2ccc(S(=O)(=O)N[C@H]3CCN(Cc4cc5c(N)nccc5cc4N)C3=O)cc2c1` displayed a Ki of 80 nM.

In turn, `COc1ccc2ccc(S(=O)(=O)N[C@H]3CCN(Cc4ccc5ccnc(Cl)c5c4)C3=O)cc2c1` came in with a Ki at Coagulation factor X of more than 1200 nM.

For `COc1ccc2ccc(S(=O)(=O)NC3CCN(Cc4ccc5nc(N)ccc5c4)C3=O)cc2c1` (stereo not drawn), the pKa in series [1] came out at 7.3. In addition, the values for the Ki on Prothrombin, at Coagulation factor X and at Serine protease 1 were more than 4000 nM, 1200 nM and more than 2900 nM, respectively.

In [1], `COc1ccc2ccc(S(=O)(=O)NC3CCN(Cc4ccc5ccc(N)nc5c4)C3=O)cc2c1` (stereo not drawn) showed a pKa of 7.3. Moreover, the results for the Ki on Prothrombin, on Coagulation factor X and at Serine protease 1 were approximately 4000 nM, 370 nM and more than 2900 nM, respectively.

As to `N=C(N)c1cccc(CN2CC[C@H](NS(=O)(=O)c3cc4ncccc4s3)C2=O)c1`, on Coagulation factor X, the Ki was 26 nM. Also, the Ratio is more than 150 in series [2]; more than 280 in series [3]; 440 in series [4]; more than 110 in [5]; more than 335 in series [6].

As for `COc1ccc2ccc(S(=O)(=O)N[C@H]3CCN(Cc4cccc(C(=N)N)c4)C3=O)cc2c1`, the pKa in series [1] was 11.6. The same compound had a Ki at Serine protease 1 of 850 nM.

Turning to `COc1ccc2ccc(S(=O)(=O)N[C@H]3CCN(Cc4cc(C(=N)N)ccc4N)C3=O)cc2c1`, the Ki on Coagulation factor X came to 6 nM.

`COc1ccc2ccc(S(=O)(=O)N(C)[C@H]3CCN(Cc4csc(C(=N)N)c4)C3=O)cc2c1`: the Cmax in series [7] worked out at 3100 nM.

For the compound `Nc1nccc2ccc(CN3CC[C@H](NS(=O)(=O)c4cc5ncccc5s4)C3=O)cc12`, the Cmax in series [8] stood at 2700 nM. The Ratio in series [2] was more than 181; in series [3], more than 330; in series [4] it was more than 841; in series [5] it was more than 131; in series [6] it was more than 395.

At Coagulation factor X, `COc1ccc2ccc(S(=O)(=O)N[C@H]3CCN(Cc4cc5c(N)nccc5cc4OC)C3=O)cc2c1` showed a Ki of 890 nM.

As to `COc1ccc2ccc(S(=O)(=O)N[C@H]3CCN(Cc4ccc5ccnc(N)c5c4)C3=O)cc2c1`, in series [1], the pKa was 7.6. Moreover, the figures for the Ki on Prothrombin and on Serine protease 1 were 1350 nM and more than 2900 nM, respectively.

In series [1], `COc1ccc2ccc(S(=O)(=O)N(C)[C@H]3CCN(Cc4ccc5ncnc(N)c5c4)C3=O)cc2c1` returned a pKa of 5.3. Also, the results for the inhibition constant Ki on Prothrombin, on Coagulation factor X and on Serine protease 1 were more than 4000 nM, 1600 nM and more than 2900 nM, respectively.

Consider `COc1ccc2ccc(S(=O)(=O)NC3CCN(Cc4cc5c(N)nccc5s4)C3=O)cc2c1` (stereo not drawn), for which the results for the Ki on Prothrombin, at Coagulation factor X and on Serine protease 1 were approximately 4000 nM, 250 nM and more than 2900 nM, respectively.
